Tests used:
[1] = system: CD69 expression on CD19+ B cells in human whole blood; assay: In Vitro whole blood CD69 Assay; format: cell-based; conditions: B-cell; human heparinized whole blood, anti-human IgD stimulation overnight, percentage of CD19+ B cells expressing CD69, flow cytometry; read-out: IC50
Protocol: In Vitro whole blood CD69 Assay
Human heparinized venous blood from health donors was aliquoted into 96-well plate and “spiked” with serial dilutions of formula I compounds in DMSO or with DMSO without drug. The final concentration of DMSO in all wells was 0.1%. The plate was incubated at 37° C. for 30 min. Drug-containing samples were stimulated with […] mouse anti-human IgD-dextran (1A62) or […] polyclonal rabbit F(ab′)2 anti-human IgD. Phosphate-buffered saline (PBS) was added to the negative control unstimulated sample and the plates were incubated overnight (18 to 22 hours) at 37° C. Cells were stained with fluorochrome-conjugated anti-CD19 and anti-CD69 antibodies. Lyse/fix solution was used to remove red blood cells by hypotonic lysis and to fix the remaining cells, which were then analyzed by flow cytometry. CD19+ B cells were gated and analyzed for CD69 expression. The percentage of B cells expressing CD69 was plotted versus the log 10 of the concentration of the drug and the best-fit curves (variable Hill slope) were generated to obtain the IC50 value.

[2] = molecular target: T1, active BTK enzyme (Upstate 14-552) (Homo sapiens, UniProt Q06187); assay: In Vitro BTK Kinase Assay: Btk-PolyGAT-LS Assay; format: biochemical; conditions: ATP 10 μM, polyGAT 100 nM, BTK 0.25 nM, 30 minutes, TRF readout
T1 construct: purchased Upstate 14-552
T1 sequence (Q06187 whole entry): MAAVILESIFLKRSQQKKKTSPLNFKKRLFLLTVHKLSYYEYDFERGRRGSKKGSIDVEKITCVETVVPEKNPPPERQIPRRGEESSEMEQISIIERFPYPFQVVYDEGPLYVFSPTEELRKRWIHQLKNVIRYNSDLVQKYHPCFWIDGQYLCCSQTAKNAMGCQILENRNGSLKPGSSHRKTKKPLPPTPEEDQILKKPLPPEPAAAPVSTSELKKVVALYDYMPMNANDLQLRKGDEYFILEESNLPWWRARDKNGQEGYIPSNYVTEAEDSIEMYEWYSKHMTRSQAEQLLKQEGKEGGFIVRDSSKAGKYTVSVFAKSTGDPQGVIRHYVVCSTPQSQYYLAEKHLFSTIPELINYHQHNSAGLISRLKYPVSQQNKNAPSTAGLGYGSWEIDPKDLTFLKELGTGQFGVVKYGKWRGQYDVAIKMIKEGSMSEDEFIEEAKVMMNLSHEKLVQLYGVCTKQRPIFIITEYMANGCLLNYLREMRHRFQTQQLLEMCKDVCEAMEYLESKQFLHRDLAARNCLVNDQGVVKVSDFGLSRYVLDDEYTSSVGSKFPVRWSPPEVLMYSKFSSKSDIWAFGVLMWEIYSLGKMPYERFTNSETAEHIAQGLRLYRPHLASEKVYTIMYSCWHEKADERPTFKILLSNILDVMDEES
Protocol: In Vitro BTK Kinase Assay: Btk-PolyGAT-LS Assay The purpose of the BTK in vitro assay is to determine compound potency against BTK through the measurement of IC50. Compound inhibition is measured after monitoring the amount of phosphorylation of a fluorescein-labeled polyGAT peptide (Invitrogen PV3611) in the presence of active BTK enzyme (Upstate 14-552), ATP, and inhibitor. The BTK kinase reaction was done in a black 96 well plate (costar 3694). For a typical assay, a 24 μL aliquot of a ATP/peptide master mix (final concentration; ATP 10 μM, polyGAT 100 nM) in kinase buffer (10 mM Tris-HCl pH 7.5, 10 mM MgCl2, 200 μM […], 5 mM DTT, 0.01% Triton X-100, and 0.2 mg/ml casein) is added to each well. Next, […] of a 4-fold, 40× compound titration in 100% DMSO solvent is added, followed by adding 15 μL of BTK enzyme mix in 1× kinase buffer (with a final concentration of 0.25 nM). The assay is incubated for 30 minutes before being stopped with 28 μL of a 50 mM EDTA solution. Aliquots (5 μL) of the kinase reaction are transferred to a low volume white 384 well plate (Coming 3674), and 5 μL of a 2× detection buffer (Invitrogen PV3574, with 4 nM Tb-PY20 antibody, Invitrogen PV3552) is added. The plate is covered and incubated for 45 minutes at room temperature. Time resolved fluorescence (TRF) on Molecular Devices M5 (332 nm excitation; 488 nm emission; 518 nm fluorescein emission) is measured. IC50 values are calculated using a four parameter fit with 100% enzyme activity determined from the DMSO control and 0% activity from the EDTA control.

| IC50 [1] [µM] | IC50 [2] [µM] | SMILES |
| --- | --- | --- |
| > 1 | 0.001 to 0.01 | C=CC(=O)N(C)[C@H]1CCC(=O)N(c2cnccc2-c2ccc(CNC(=O)c3nnn(C(C)(C)C)n3)c(C)c2)C1 (single isomer, unassigned) [Example 53 Peak 1] |
| > 1 | 0.001 to 0.01 | C=CC(=O)N(C)C1CCCN(c2cnccc2-c2ccc(CNC(=O)c3ncn(C(C)(C)C)n3)c(C)c2)C1 (stereo not drawn) [Example 40, 1-(tert-butyl)-N-(2-methyl-4-(3-(3-(N-methylacrylamido)piperidin-1-yl)pyridin-4-yl)benzyl)-1H-1,2,4-triazole-3-carboxamide] |
| > 1 | 0.001 to 0.01 | C=CC(=O)N(C)C1CCCN(c2cnccc2-c2ccc(CNC(=O)c3ccn(C(C)(C)C)n3)c(C)c2)C1 (stereo not drawn) [Example 44, 1-(tert-butyl)-N-(2-methyl-4-(3-(3-(N-methylacrylamido)piperidin-1-yl)pyridin-4-yl)benzyl)-1H-pyrazole-3-carboxamide] |
| 0.1 to 1 | ≤ 0.001 | C=CC(=O)N(C)C1CCCN(c2cnccc2-c2ccc(CNC(=O)c3cc(C(C)(C)C)on3)c(C)c2)C1 (stereo not drawn) [Example 14, 5-(tert-butyl)-N-(2-methyl-4-(3-(3-(N-methylacrylamido)piperidin-1-yl)pyridin-4-yl)benzyl)isoxazole-3-carboxamide] |
|  | ≤ 0.001 | C=CC(=O)N(C)C1CCN(c2cncnc2-c2ccc(CNC(=O)c3cn(C(C)(C)C)nn3)c(C)c2)C1 (stereo not drawn) [Example 9, 1-(tert-butyl)-N-(2-methyl-4-(5-(3-(N-methylacrylamido)pyrrolidin-1-yl)pyrimidin-4-yl)benzyl)-1H-1,2,3-triazole-4-carboxamide] |
|  | ≤ 0.001 | C=CC(=O)N(C)[C@@H]1CCCN(c2cncc(C#N)c2-c2ccc(CNC(=O)c3cn(C(C)(C)C)nn3)c(C)c2)C1 [Example 48, (R)-1-(tert-butyl)-N-(4-(3-cyano-5-(3-(N-methylacrylamido)piperidin-1-yl)pyridin-4-yl)-2-methylbenzyl)-1H-1,2,3-triazole-4-carboxamide] |
|  | > 0.01 | C=CC(=O)N1CCC[C@@H](c2cnccc2-c2ccc(CNC(=O)c3cn(C(C)(C)C)nn3)c(C)c2)C1 (single isomer, unassigned) [Example 25] |
|  | ≤ 0.001 | C=CC(=O)N(C)C1CCCN(c2cnccc2-c2ccc(CNC(=O)c3cnc(C(C)(C)C)o3)c(C)c2)C1 (stereo not drawn) [Example 38, 2-(tert-butyl)-N-(2-methyl-4-(3-(3-(N-methylacrylamido)piperidin-1-yl)pyridin-4-yl)benzyl)oxazole-5-carboxamide] |

The next lines start with the compound.

| SMILES | IC50 [1] [µM] | IC50 [2] [µM] |
| --- | --- | --- |
| C=CC(=O)N1CCN(c2cnccc2-c2ccc(CNC(=O)c3noc(C(C)(C)C)n3)c(C)c2)CC1 [Example 63, N-(4-(3-(4-acryloylpiperazin-1-yl)pyridin-4-yl)-2-methylbenzyl)-5-(tert-butyl)-1,2,4-oxadiazole-3-carboxamide] | 0.1 to 1 | ≤ 0.001 |
| Cc1cc(-c2ncncc2N2CCN(C(=O)/C=C/CN(C)C)CC2)ccc1CNC(=O)c1noc(C(C)(C)C)n1 [Example 82, (E)-5-(tert-butyl)-N-(4-(5-(4-(4-(dimethylamino)but-2-enoyl)piperazin-1-yl)pyrimidin-4-yl)-2-methylbenzyl)-1,2,4-oxadiazole-3-carboxamide] | < 0.1 | ≤ 0.001 |
| C=CC(=O)N1CCC(c2cnccc2-c2ccc(CNC(=O)c3noc(C(C)(C)C)n3)c(C)c2)CC1 [Example 35, N-(4-(3-(1-acryloylpiperidin-4-yl)pyridin-4-yl)-2-methylbenzyl)-5-(tert-butyl)-1,2,4-oxadiazole-3-carboxamide] | 0.1 to 1 | 0.001 to 0.01 |
| C=CC(=O)N(C)C1CCCN(c2cnccc2-c2ccc(CNC(=O)c3nc(C(C)(C)C)no3)c(C)c2F)C1 (stereo not drawn) [Example 18, 3-(tert-butyl)-N-(3-fluoro-2-methyl-4-(3-(3-(N-methylacrylamido)piperidin-1-yl)pyridin-4-yl)benzyl)-1,2,4-oxadiazole-5-carboxamide] | 0.1 to 1 | ≤ 0.001 |
| CN(C)C/C=C/C(=O)N1CCN(c2cnccc2-c2ccc(CNC(=O)c3noc(C(C)(C)C)n3)c(C(F)(F)F)c2)CC1 [Example 90, (E)-5-(tert-butyl)-N-(4-(3-(4-(4-(dimethylamino)but-2-enoyl)piperazin-1-yl)pyridin-4-yl)-2-(trifluoromethyl)benzyl)-1,2,4-oxadiazole-3-carboxamide] | < 0.1 | ≤ 0.001 |
| C=CC(=O)N1CCN(c2cnccc2-c2ccc(CNC(=O)c3noc(C4(C(F)F)CC4)n3)c(C)c2)CC1 [Example 99, N-(4-(3-(4-acryloylpiperazin-1-yl)pyridin-4-yl)-2-methylbenzyl)-5-(1-(difluoromethyl)cyclopropyl)-1,2,4-oxadiazole-3-carboxamide] |  | ≤ 0.001 |
| CN(C)C/C=C/C(=O)N1CCN(c2cnccc2-c2ccc(CNC(=O)c3noc(C4(C)CC4)n3)c(C(F)F)c2)CC1 [Example 88, (E)-N-(2-(difluoromethyl)-4-(3-(4-(4-(dimethylamino)but-2-enoyl)piperazin-1-yl)pyridin-4-yl)benzyl)-5-(1-methylcyclopropyl)-1,2,4-oxadiazole-3-carboxamide] |  | 0.001 to 0.01 |
| C#CC(=O)N1CCN(c2cnccc2-c2ccc(CNC(=O)c3noc(C(C)(C)C)n3)c(C)c2)CC1 [Example 60, 5-(tert-butyl)-N-(2-methyl-4-(3-(4-propioloylpiperazin-1-yl)pyridin-4-yl)benzyl)-1,2,4-oxadiazole-3-carboxamide] |  | ≤ 0.001 |
| Cc1cc(-c2ccncc2N2CCN(C(=O)/C=C/CN3CCN(C)CC3)CC2)ccc1CNC(=O)c1noc(C(C)(C)C)n1 [Example 65, (E)-5-(tert-butyl)-N-(2-methyl-4-(3-(4-(4-(4-methylpiperazin-1-yl)but-2-enoyl)piperazin-1-yl)pyridin-4-yl)benzyl)-1,2,4-oxadiazole-3-carboxamide] |  | 0.001 to 0.01 |
| Cc1cc(-c2ccncc2N2CCN(C(=O)C3=CCC3)CC2)ccc1CNC(=O)c1noc(C(C)(C)C)n1 [Example 57, 5-(tert-butyl)-N-(4-(3-(4-(cyclobut-1-ene-1-carbonyl)piperazin-1-yl)pyridin-4-yl)-2-methylbenzyl)-1,2,4-oxadiazole-3-carboxamide] |  | ≤ 0.001 |
| C=CC(=O)N1CCN(c2cnccc2-c2ccc(CNC(=O)c3ccc(C(F)F)nc3)c(C)c2)CC1 [Example 97, N-(4-(3-(4-acryloylpiperazin-1-yl)pyridin-4-yl)-2-methylbenzyl)-6-(difluoromethyl)nicotinamide] |  | 0.001 to 0.01 |
| Cc1cc(-c2c(F)cncc2N2CCN(C(=O)/C=C/CN(C)C)CC2)ccc1CNC(=O)c1noc(C2(C)CC2)n1 [Example 77, (E)-N-(4-(3-(4-(4-(dimethylamino)but-2-enoyl)piperazin-1-yl)-5-fluoropyridin-4-yl)-2-methylbenzyl)-5-(1-methylcyclopropyl)-1,2,4-oxadiazole-3-carboxamide] |  | 0.001 to 0.01 |
| Cc1cc(-c2ccncc2N2CCN(C(=O)/C=C/CN3CC(F)C3)CC2)ccc1CNC(=O)c1noc(C(C)(C)C)n1 [Example 64, (E)-5-(tert-butyl)-N-(4-(3-(4-(4-(3-fluoroazetidin-1-yl)but-2-enoyl)piperazin-1-yl)pyridin-4-yl)-2-methylbenzyl)-1,2,4-oxadiazole-3-carboxamide] |  | 0.001 to 0.01 |
| C=CC(=O)N1CCC[C@H](c2cnccc2-c2ccc(CNC(=O)c3noc(C4(C)CC4)n3)c(C)c2)C1 (single isomer, unassigned) [Example 27] |  | > 0.01 |
| CC#CC(=O)N1CCN(c2cnccc2-c2ccc(CNC(=O)c3noc(C(C)(C)C)n3)c(C)c2)CC1 [Example 62, N-(4-(3-(4-(but-2-ynoyl)piperazin-1-yl)pyridin-4-yl)-2-methylbenzyl)-5-(tert-butyl)-1,2,4-oxadiazole-3-carboxamide] |  | ≤ 0.001 |
| C=CC(=O)N1CCN(c2cncnc2-c2ccc(CNC(=O)c3nc(C4(C)CC4)no3)c(C)c2)CC1 [Example 84, N-(4-(5-(4-acryloylpiperazin-1-yl)pyrimidin-4-yl)-2-methylbenzyl)-3-(1-methylcyclopropyl)-1,2,4-oxadiazole-5-carboxamide] |  | ≤ 0.001 |
